Data: patent US20080138288A1, “COMBINATIONS FOR TREATMENT OF NEOVASCULATURE” (Washington University, priority 2006, published 2008)

Tested on: aortic vasa vasorum neovasculature
Experiment: MRI signal enhancement of aortic vasa vasorum neovasculature in cholesterol-fed rabbits (Example 1, FIG. 1)
Type: in vivo
Details: weeks 2 to 8; atorvastatin in high-cholesterol chow, 44 mg/kg feed
Protocol: Cholesterol-fed rabbits received αvβ3-targeted paramagnetic nanoparticles (NP) with (n=9) or without (n=9) fumagillin (30 μg/kg body weight) at weeks 0 and 4. A portion of the animals (n=4 per group) was treated with atorvastatin included in the high-cholesterol chow (44 mg/kg feed). Assessment of antiangiogenic response was evaluated at weeks 2, 4, 6 and 8 using αvβ3-targeted paramagnetic NP lacking the drug. MRI signal enhancement from the aortic vasa vasorum neovasculature was calculated from transverse black-blood MR images (1.5 T) collected before and 4 hours post NP injection (1 ml/kg body weight). The MRI enhancement observed at each timepoint was normalized with respect to the enhancement measured at week 0.

CC(C)c1c(C(=O)Nc2ccccc2)c(-c2ccccc2)c(-c2ccc(F)cc2)n1CC[C@@H](O)C[C@@H](O)CC(=O)O [atorvastatin]
MRI enhancement in the thoracic aorta, normalized to week 0, time course: slow decrease in enhancement
